# Experimental data: article PMC5572697, “A first-in-human study of the novel HIV-fusion inhibitor C34-PEG4-Chol” (Scientific Reports, 2017)
# Entries after “also recorded” stand apart in the source; their conditions may differ. Like-named read-outs stand apart in the source and are kept apart here.
# Tests used:
# HIV-positive men = assay: First-in-human safety and injection site reaction (ISR) grading; format: in vivo; conditions: for ISR grade: one participant
# Procedure: Dosing was commenced at the lowest dose of 10 mg in a volume of 1 mL. Randomisation was undertaken using the InForm™ Integrated Trial Management system and was on a 1:1 basis, with no predefined stratifications. All clinical study staff were blinded. Clinical research pharmacists who were not part of the clinical research team, were not blinded in order to reconstitute study products. These members of the research pharmacy team had no involvement in the clinical care of participants during study procedures.
# At all study time-points, participants were reviewed for ISRs, a symptom-directed physical examination was performed and blood samples were collected for full blood picture, electrolytes, liver enzymes, amylase and glucose. An electrocardiogram was performed pre-dose and 4 and 12 hours after dosing. A decision to proceed with dose escalation was made only after all four participants in each dose cohort had been observed for a minimum of 7 days for safety assessments. All safety data were reviewed by an independent data monitoring committee (IDMC).
# Supplementary Information 1:
# Table S1: List of injection site reactions (ISR) grading
# in vivo [1] = conditions: mouse, C57BL/6 mice; for AUC(0-inf): plasma LC-MS, mean of three animals per point
# Procedure: (§1) C34-PEG4-Chol first in man – Supplementary Information
# (§2) Supplementary Information 2:
# (§3) Preclinical Pharmacokinetics of C34-PEG4-Chol […]
# (§4) C34-PEG4-Chol was formulated in 10 mM phosphate buffered saline (pH 7.2). The concentration of C34-PEG4-Chol in plasma samples was determined by LC-MS as previously […]
# The PK of C34-PEG4-Chol in C57BL/6 mice following intravenous (IV) and subcutaneous (SC) dosing is shown in […]
# (§5) Figure S2: Pharmacokinetics of C34-PEG4-Chol in mice. 3.5 mg/kg or 1.0 mg/kg (SC and IV, respectively) of C34-PEG4-Chol in 10mM phosphate buffered saline (PBS) were administered to C57BL/6 mice: volume of administration 5 mL/kg and 2 mL/kg for SC and IV administration, respectively. The concentration of the dosing solution was determined immediately after dosing with the same analytical method utilized to monitor peptide plasma concentration with time, and the analytical curves were adjusted accordingly (SC dose 0.56 mg/mL, theor.
# 0.5 mg/mL; IV dose 0.62 mg/mL, theor. 0.7 mg/mL). Each data point is the mean of three animals.
# (§6) (1 picture or pasted object on this page, not shown here) […]
# in vivo [2] = conditions: rat, Wistar Han rats; for AUC(0-inf): plasma LC-MS, mean of three animals per point
# Procedure: as §1, §2, §3, §4, §6
# as §5, with “S3.” for “S2:”, “rats” for “mice.”, “Wistar Han rats:” for “C57BL/6 mice:”, “0.5 mL/kg.” for “5 mL/kg and 2 mL/kg for SC and IV administration, respectively.”, “accordingly. Each data point is the mean of three animals.” for “accordingly (SC dose 0.56 mg/mL, theor.”
# Table S3. Calculated pharmacokinetics parameters of C34-PEG4-Chol in rats, following intravenous (IV) and subcutaneous (SC) administration.
# [3] = IV 1.0 mg/kg, read-out: t½ (converted)
structure (smiles),measurement,setting,value
CC[C@H](C)[C@H](NC(=O)[C@H](CC(C)C)NC(=O)[C@H](CO)NC(=O)[C@H](Cc1c[nH]cn1)NC(=O)[C@@H](NC(=O)[C@H](CC(C)C)NC(=O)[C@H](CO)NC(=O)[C@@H](NC(=O)[C@H](Cc1ccc(O)cc1)NC(=O)[C@H](CC(N)=O)NC(=O)[C@H](CC(N)=O)NC(=O)[C@@H](NC(=O)[C@H](CCC(=O)O)NC(=O)[C@H](CCCNC(=N)N)NC(=O)[C@H](CC(=O)O)NC(=O)[C@H](Cc1c[nH]c2ccccc12)NC(=O)[C@H](CCC(=O)O)NC(=O)[C@H](CCSC)NC(=O)[C@H](Cc1c[nH]c2ccccc12)NC(C)=O)[C@@H](C)CC)[C@@H](C)O)[C@@H](C)CC)C(=O)N[C@@H](CCC(=O)O)C(=O)N[C@@H](CCC(=O)O)C(=O)N[C@@H](CO)C(=O)N[C@@H](CCC(N)=O)C(=O)N[C@@H](CC(N)=O)C(=O)N[C@@H](CCC(N)=O)C(=O)N[C@@H](CCC(N)=O)C(=O)N[C@@H](CCC(=O)O)C(=O)N[C@@H](CCCCN)C(=O)N[C@@H](CC(N)=O)C(=O)N[C@@H](CCC(=O)O)C(=O)N[C@@H](CCC(N)=O)C(=O)N[C@@H](CCC(=O)O)C(=O)N[C@@H](CC(C)C)C(=O)N[C@@H](CC(C)C)C(=O)NCC(=O)N[C@@H](CO)C(=O)NCC(=O)N[C@@H](CSCC(=O)NCCOCCOCCOCCOCCC(=O)O[C@H]1CC[C@@]2(C)C(=CC[C@H]3[C@@H]4CC[C@H]([C@H](C)CCCC(C)C)[C@@]4(C)CC[C@@H]32)C1)C(N)=O [C34-PEG4-Chol],Individuals with grade 3 ISR among those administered active drug,"HIV-positive men; 3 men received active drug (10 mg, 10 mg, 20 mg), subcutaneous",2 out of 3
same,ISR grade,HIV-positive men; single subcutaneous 10 mg dose,grade 3
same,ISR grade,HIV-positive men; single subcutaneous 20 mg dose,grade 3
same,Systemic clinical or laboratory toxicities,"HIV-positive men; single subcutaneous 10 or 20 mg, 84 days follow up",No systemic toxicities were observed; also recorded: No systemic clinical toxicities or laboratory defined toxicities were observed
same,clearance,in vivo [1]; IV 1.0 mg/kg,0.29 mL/min/kg
same,AUC(0-inf),in vivo [1]; IV 1.0 mg/kg in 10 mM PBS,10.8 µM·h
same,Vd,"in vivo [1]; IV 1.0 mg/kg, read-out: Vdss",0.05 L/kg
same,half-life,in vivo [1]; [3],1.97 h
same,Cmax,in vivo [1]; SC 3.5 mg/kg,1120 nM
same,Tmax,in vivo [1]; SC 3.5 mg/kg,5.3 h
same,bioavailability,in vivo [1]; SC 3.5 mg/kg,30.3%
same,AUC(0-inf),in vivo [1]; SC 3.5 mg/kg in 10 mM PBS,11.5 µM·h
same,clearance,in vivo [2]; IV 1.0 mg/kg,0.48 mL/min/kg
same,AUC(0-inf),in vivo [2]; IV 1.0 mg/kg in 10 mM PBS,6.6 µM·h
same,Vd,"in vivo [2]; IV 1.0 mg/kg, read-out: Vdss",0.08 L/kg
same,half-life,in vivo [2]; [3],2.18 h
same,Cmax,in vivo [2]; SC 3.5 mg/kg,260 nM
same,Tmax,in vivo [2]; SC 3.5 mg/kg,3.3 h
same,bioavailability,in vivo [2]; SC 3.5 mg/kg,7.97%
same,AUC(0-inf),in vivo [2]; SC 3.5 mg/kg in 10 mM PBS,1.86 µM·h
